How the values were obtained:
PC-3 tumor cells [1] = experiment: Cell uptake assay on PC-3 tumor cells; format: cell-based, human; conditions: PC-3 cells
Description: In the cell uptake experiment, PC-3 cells were seeded into 12-well plates at a density of 5×10^5 cells per well for overnight incubation. Cells were rinsed 3 times with phosphate-buffered saline (PBS), followed by the addition of ^18F-FB-RGD, ^18F-FB-BBN, or ^18F-BBN-RGD to the cultured wells in triplicate (about 2 μCi/well). […] The cell lysate was collected in measurement tubes for counting. The cell uptake was normalized in terms of added radioactivity.
(§1) The cell uptake studies were performed as we have previously described with some modifications (Chen et al., Mol Imaging Biol. (2004) […]; Cai et al., (2006) J. Nuc. Med. 47: 1172-1180, incorporated herein by reference in their entireties). Briefly, PC-3 cells were seeded into 12-well plates at a density of 5×10^5 cells per well and incubated (about 18 kBq/well) with ^68Ga-labeled tracers at 37° C. for 15, 30, 60, and 120 min. Tumor cells were then washed three times with chilled PBS and harvested by trypsinization with 0.25% trypsin/0.02% EDTA (Invitrogen). The cell suspensions were collected and measured in a y counter (Packard, Meriden, Conn.). The cell uptake was expressed as the percent added dose (% AD) after decay correction. Experiments were performed twice with triplicate wells. For efflux studies, ^68Ga-labeled tracers (about 18 kBq/well) were first incubated with PC-3 cells in 12-well plates for 1 h at 37° C. to allow internalization. Then cells were washed twice with PBS, and incubated with cell culture medium for 15, 30, and 60 min. After washing three times with PBS, cells were harvested by trypsinization with 0.25% trypsin/0.02% EDTA. The cell suspensions were collected and measured in a γ counter. Experiments were performed twice with triplicate wells. Data are expressed as percent added dose after decay correction.

in vivo [2] = conditions: mouse, in vivo, iv, total radioactivity
Description: (a) PET scans and image analysis were performed using a micro-PET R4 rodent model scanner (Siemens Medical Solutions) as reported by Li et al., J. Nucl. Med. (2007) 48: 1162-1171 and Wu et al., J Nucl. Med. (2005) 46: 1707-1718, both of which are incorporated herein by reference in their entireties). […] Five-minute static PET images were then acquired at 0.5, 1, and 2 h after injection. The images were reconstructed by a 2-dimensional ordered-subsets expectation maximum (OSEM) algorithm. No attenuation or scatter correction was applied. […] The 5-min static PET scans were then acquired at 1 hr after injection. For each small-animal PET scan, regions of interest (ROIs) were drawn over the tumor, normal tissue, and major organs by using vendor software (ASI Pro 5.2.4.0) on decay-corrected whole-body coronal images. The average radioactivity concentration (accumulation) within a tumor or an organ was obtained from mean pixel values within the multiple ROI volume, which were converted to counts/mL/min using a conversion factor. Assuming a tissue density of 1 g/mL, the ROIs were converted to counts/g/min, and then divided by the administered activity to obtain an imaging ROI-derived percentage injected dose per gram of tissue (% ID/g).
For dynamic PET, 30-min scans (1×30 s, 4×1 min, 1×1.5 min, 4×2 min, 5×3 min; total 15 frames) were started 1 min after injection, and two 5-min static PET images were also acquired at 1 h and 2 h after injection. […] For each small-animal PET scan, regions of interest (ROIs) were drawn over the tumor, normal tissue, and major organs using vendor software ASI Pro 5.2.4.0 on decay-corrected whole-body coronal images. The maximum radioactivity concentrations (accumulation) within a tumor or an organ were obtained from mean pixel values within the multiple ROI volume, and were converted to megabecquerels per milliliter per minute using a conversion factor. These values were then divided by the administered activity to obtain (assuming a tissue density of 1 g/ml) an image ROI-derived percent injected dose per gram (% ID/g).
The images were reconstructed using a 2-dimensional ordered-subsets expectation maximum algorithm without attenuation or scatter correction.
For each small-animal PET scan, regions of interest were drawn over each tumor, over normal tissue, and over major organs using vendor software (ASI Pro, version 5.2.4.0) on decay-corrected whole-body coronal images. The maximum radioactivity concentration (accumulation) within a tumor or an organ was obtained from the mean pixel values within the multiple-region-of-interest volume, which were converted to MBq/mL/min using a conversion factor. Assuming a tissue density of 1 g/mL, the regions of interest were converted to MBq/g/min and then divided by the administered activity to obtain an imaging region-of-interest-derived percentage injected dose (% ID)/g.

in vivo [3] = experiment: in vivo; parameters: species or system mice; conditions: female, BALB/c, mouse, iv, 3.7 MBq, total radioactivity
Description: The 4T1 murine breast cancer cell line was purchased from American Type Culture Collection and grown in RMPI 1640 medium (Invitrogen Corp.) supplemented with 10% (v/v) fetal bovine serum (Invitrogen) at 37° C. with 5% CO2. The 4T1 tumor model was generated by subcutaneous injection of 5×10^6 tumor cells into the left front flank of female normal BALB/c mice (Harlan).
Five-minute static PET images were then acquired at 2 h after injection (n=3/group).

PC-3 tumor cells [4] = format: cell-based, human; conditions: PC-3 cells, 60 min efflux, FIG. 14D
Description: In the cell efflux experiment, PC-3 cells were seeded into 12-well plates at a density of 5×10^5 cells per well for overnight incubation. Cells were rinsed 3 times with PBS and then the appropriate ^18F-labeled peptide tracer was added. The cells were incubated at 37° C. for 2 hr, washed with PBS, and then reincubated with serum-free medium. The cells were washed at different time points (0, 15, 30, 60, 120, 180 min) with PBS and lysed with NaOH-SDS (0.2 M NaOH, 1% SDS). The cell lysate was collected in measurement tubes for counting. Efflux values at different time points were calculated by subtracting retention from 0-min retention, and normalized by dividing the total counts at 0 min.
as §1

[5] = Small-animal PET of MDA-MB-435 tumor-bearing mice; conditions: female, athymic nude, mouse, in vivo, iv, 3.7 MBq, total radioactivity, MDA-MB435 tumor uptake
Description: The MDA-MB435 tumor model was established by orthotopic injections of 5×10^6 cells into the right mammary fat pad of female athymic nude mice. […] The mice were subjected to microPET studies when the tumor volume reached 100-300 mm^3 (2-3 weeks for MDA-MB-435, and 4-5 wk for T47D).
For static PET, 5-min scans were acquired at 30 min, 1 h, and 2 h after injection. For dynamic PET, 30-min scans (1×30 s, 4×1 min, 1×1.5 min, 4×2 min, 5×3 min; total 15 frames) were started 1 min after injection, and two 5-min static PET images were also acquired at 1 h and 2 h after injection. The images were reconstructed using a two-dimensional ordered subsets expectation maximum (OSEM) algorithm and no correction was applied for attenuation or scatter. […] For each small-animal PET scan, regions of interest (ROIs) were drawn over the tumor, normal tissue, and major organs using vendor software ASI Pro 5.2.4.0 on decay-corrected whole-body coronal images. The maximum radioactivity concentrations (accumulation) within a tumor or an organ were obtained from mean pixel values within the multiple ROI volume, and were converted to megabecquerels per milliliter per minute using a conversion factor. These values were then divided by the administered activity to obtain (assuming a tissue density of 1 g/ml) an image ROI-derived percent injected dose per gram (% ID/g).
Quantification of tumor and major organ activity accumulation in the microPET scans was realized by measuring the regions of interest (ROIs) that encompassing the entire organ on the coronal images.

DU-145 tumor = format: in vivo, mice; conditions: integrin αvβ3-positive, low GRPR-expressing tumor
Description: The PC-3 and DU-145 human prostate carcinoma cell lines were purchased from American Type Culture Collection. PC-3 cells were grown in F-12K nutrient mixture (Kaighn's modification) (Invitrogen Corp.), and DU-145 cells were grown in minimum essential medium (Eagle) mixture supplemented with 10% (v/v) fetal bovine serum (Invitrogen) at 37° C. with 5% CO2. The PC-3 and DU-145 tumor models were generated by subcutaneous injection of 5×10^6 tumor cells into the front flank of male athymic nude mice (Harlan).
No attenuation or scatter correction was applied.

[6] = male, athymic nude, 5.5 MBq, Blood uptake
[7] = male, athymic nude, 5.5 MBq, Tumor uptake

Which cell uptake value (PC-3 tumor cells [1]; 120 min) does the source give for CSCC[C@H](NC(=O)[C@H](CC(C)C)NC(=O)[C@H](Cc1c[nH]cn1)NC(=O)CNC(=O)[C@@H](NC(=O)[C@H](C)NC(=O)[C@H](Cc1c[nH]c2ccccc12)NC(=O)[C@H](CCC(N)=O)NC(=O)CCCCCNC(=O)CC[C@H](NC(=O)CN1CCN(CC(=O)O)CCN(CC(=O)O)CCN(CC(=O)O)CC1)C(=O)NCCCC[C@@H]1NC(=O)[C@@H](Cc2ccc(O)cc2)NC(=O)[C@H](CC(=O)O)NC(=O)CNC(=O)[C@H](CCCNC(=N)N)NC1=O)C(C)C)C(N)=O [^64Cu-DOTA-RGD-BBN, metal not drawn] here?
The cell uptake value was 3.70 % added dose.

What about the tissue uptake at 0.5 h (in vivo [2]; [6]) of the same compound?
Its tissue uptake at 0.5 h is 1.15 ± 0.49 %ID/g.

And the tissue uptake at 0.5 h (in vivo [2]; [7])?
Its tissue uptake at 0.5 h is 3.05 ± 0.56 %ID/g.

And the tissue uptake at 1 h (in vivo [2]; [7])?
Its tissue uptake at 1 h is 1.87 ± 0.41 %ID/g.

And the tissue uptake at 4 h (in vivo [2]; [7])?
The tissue uptake at 4 h was 1.05 ± 0.49 %ID/g.

What about the tissue uptake at 20 h (in vivo [2]; [7]) of the same compound?
The tissue uptake at 20 h was 0.97 ± 0.24 %ID/g.

What about the tissue uptake at 1 h (in vivo [2]; 5.5 MBq, Blood uptake) of the same compound?
The tissue uptake at 1 h was 0.69 ± 0.24 %ID/g.

And the tissue uptake at 4 h (in vivo [2]; 5.5 MBq, Blood uptake)?
Its tissue uptake at 4 h is 0.45 ± 0.2 %ID/g.

And the tissue uptake at 20 h (in vivo [2]; 5.5 MBq, Blood uptake)?
Its tissue uptake at 20 h is 0.31 ± 0.13 %ID/g.

What about the tissue uptake at 0.5 h (in vivo [2]; 5.5 MBq, Kidney uptake) of the same compound?
The tissue uptake at 0.5 h was 5.99 ± 1.61 %ID/g.

What about the tissue uptake at 1 h (in vivo [2]; 5.5 MBq, Kidney uptake) of the same compound?
Its tissue uptake at 1 h is 3.4 ± 1.25 %ID/g.

What about the tissue uptake at 4 h (in vivo [2]; 5.5 MBq, Kidney uptake) of the same compound?
Its tissue uptake at 4 h is 2.51 ± 0.47 %ID/g.

And the tissue uptake at 20 h (in vivo [2]; 5.5 MBq, Kidney uptake)?
The tissue uptake at 20 h was 1.64 ± 0.34 %ID/g.

And the tissue uptake at 0.5 h (in vivo [2]; 5.5 MBq, Liver uptake)?
Its tissue uptake at 0.5 h is 3.4 ± 1.42 %ID/g.

What about the tissue uptake at 1 h (in vivo [2]; 5.5 MBq, Liver uptake) of the same compound?
Its tissue uptake at 1 h is 3.05 ± 1.07 %ID/g.

What about the tissue uptake at 4 h (in vivo [2]; 5.5 MBq, Liver uptake) of the same compound?
The tissue uptake at 4 h was 2.33 ± 0.88 %ID/g.

What about the tissue uptake at 20 h (in vivo [2]; 5.5 MBq, Liver uptake) of the same compound?
The tissue uptake at 20 h was 1.74 ± 0.9 %ID/g.

What does the source list for CSCC[C@H](NC(=O)[C@H](CC(C)C)NC(=O)[C@H](Cc1c[nH]cn1)NC(=O)CNC(=O)[C@@H](NC(=O)[C@H](C)NC(=O)[C@H](Cc1c[nH]c2ccccc12)NC(=O)[C@H](CCC(N)=O)NC(=O)CCCCCNC(=S)Nc1ccc(C[C@H]2CN(CC(=O)O)CCN(CC(=O)O)CCN2CC(=O)O)cc1)C(C)C)C(N)=O [^64Cu-NOTA-BBN, metal not drawn, reference compound]?
tissue uptake at 0.5 h (in vivo [2]; [6]): < 1 %ID/g; tissue uptake at 0.5 h (in vivo [2]; [7]): 2.28 ± 0.35 %ID/g; tissue uptake at 1 h (in vivo [2]; [7]): 1.25 ± 1.03 %ID/g; tissue uptake at 4 h (in vivo [2]; [7]): 0.56 ± 0.4 %ID/g; tissue uptake at 20 h (in vivo [2]; [7]): 0.44 ± 0.39 %ID/g; tissue uptake at 24 h (in vivo [2]; [7]): 0.44 ± 0.39 %ID/g; tissue uptake at 1 h (in vivo [2]; 5.5 MBq, Blood uptake): 0.23 ± 0.11 %ID/g; tissue uptake at 4 h (in vivo [2]; 5.5 MBq, Blood uptake): 0.19 ± 0.1 %ID/g; tissue uptake at 20 h (in vivo [2]; 5.5 MBq, Blood uptake): 0.15 ± 0.05 %ID/g; tissue uptake at 0.5 h (in vivo [2]; 5.5 MBq, Kidney uptake): 3.55 ± 1.17 %ID/g; tissue uptake at 1 h (in vivo [2]; 5.5 MBq, Kidney uptake): 1.5 ± 0.39 %ID/g; tissue uptake at 4 h (in vivo [2]; 5.5 MBq, Kidney uptake): 0.76 ± 0.45 %ID/g; tissue uptake at 20 h (in vivo [2]; 5.5 MBq, Kidney uptake): 0.5 ± 0.44 %ID/g; tissue uptake at 0.5 h (in vivo [2]; 5.5 MBq, Liver uptake): 10.4 ± 2.27 %ID/g; tissue uptake at 1 h (in vivo [2]; 5.5 MBq, Liver uptake): 8.85 ± 1.61 %ID/g; tissue uptake at 4 h (in vivo [2]; 5.5 MBq, Liver uptake): 6.35 ± 0.57 %ID/g; tissue uptake at 20 h (in vivo [2]; 5.5 MBq, Liver uptake): 4.2 ± 0.53 %ID/g; tissue uptake at 2 h (in vivo [3]): 0.33 ± 0.18 %ID/g

For CSCC[C@H](NC(=O)[C@H](CC(C)C)NC(=O)[C@H](Cc1c[nH]cn1)NC(=O)CNC(=O)[C@@H](NC(=O)[C@H](C)NC(=O)[C@H](Cc1c[nH]c2ccccc12)NC(=O)[C@H](CCC(N)=O)NC(=O)CCCCCNC(=S)Nc1ccc(C[C@H]2CN(CC(=O)O)CCN(CC(=O)O)CCN2CC(=O)O)cc1)C(C)C)C(N)=O [^68Ga-NOTA-BBN, metal not drawn, reference compound], which “cell-associated tracer (cell retention)” value (PC-3 tumor cells [4]) is on record?
The value was 6.70±1.00 % AD.

And the tissue uptake at 0.5 h (in vivo [2]; male, athymic nude, 3.7 MBq, liver uptake (highest))?
Its tissue uptake at 0.5 h is 2 %ID/g.

And the tissue uptake at 1 h [5]?
Its tissue uptake at 1 h is 0.38 ± 0.5 %ID/g.

With N=C(N)NCCC[C@@H]1NC(=O)[C@H](CCCCNC(=S)Nc2ccc(C[C@H]3CN(CC(=O)O)CCN(CC(=O)O)CCN3CC(=O)O)cc2)NC(=O)[C@@H](Cc2ccc(O)cc2)NC(=O)[C@H](CC(=O)O)NC(=O)CNC1=O [^68Ga-NOTA-RGD, metal not drawn, reference compound] as the compound, how does the tissue uptake at 1 h [5] read?
Its tissue uptake at 1 h is 1.63 ± 0.59 %ID/g.

With “^18F-FB-BBN-RGD: ^18F-fluorobenzoate-labeled heterodimer of BBN(7-14) and c(RGDyK) joined through a glutamate linker” as the compound, how does the “detection of the DU-145 tumor by PET” value (DU-145 tumor) read?
Its value is “able to visualize this tumor model”.

With “^18F-FB-RGD: ^18F-fluorobenzoate-labeled monomeric RGD peptide c(RGDyK) [reference compound]” as the compound, how does the cell uptake (PC-3 tumor cells [1]; 37° C., normalized to added radioactivity) read?
Its cell uptake is less than 0.5%.

And the “detection of the DU-145 tumor by PET” value (DU-145 tumor)?
The value was “able to visualize this tumor model”.

From patent publication US20100015058A1, “RADIOLABELED BBN-RGD HETERODIMERS FOR CANCER TARGETING” (STANFORD UNIVERSITY, priority 2008, published 2010)
